Laboratory results from patent US9044452B2, “Use of resiniferatoxin (RTX) for producing an agent for treating joint pains and method for applying said agent” (MESTEX AG, priority 2004, dated 2015).

Assays:
[1] = test system: painful, septic loosening of a total hip endoprosthesis; experiment: Injection into (neo)-capsule about the prosthesis in painful, septic loosening of a total hip endoprosthesis; type: in vivo, human
Description: A solution of 5 μmolar (approximately 0.03 mg) solution of resiniferatoxin was injected into the (neo)-capsule about the prosthesis of a patient with a painful, septic loosening of a total hip endoprosthesis. […] Optionally, this treatment may be supported with systemically administered antibiotics (such as 450 mg of Rifampicin, 750 mg of ciproflaxacin).

[2] = test system: shoulder joint; experiment: Injection into shoulder joint of patient with painful capsulitis of joints (frozen shoulder); type: in vivo, human; details: for joint mobility lost due to capsulitis: with physiotherapy
Description: The shoulder joint of a patient with painful capsulitis of joints (frozen shoulder) was injected with 9 mL of a 100 nmolar (approximately 0.001 mg) solution of resiniferatoxin in physiological salt solution. Once again, it was possible to check the distribution of the substance by adding the appropriate contrasting agent and employing an imaging procedure. Optionally, a substance with antiphlogistic activity was admixed. […] For this application, only a temporary analgesia (2-3 weeks) is desired. For this reason, the concentration of the neurotoxic substances, if anything, was kept low.
The shoulder joint of a patient with painful capsulitis of joints (frozen shoulder) was injected with 3 mL of a 500 nmolar (approximately 0.001 mg) solution of resiniferatoxin in physiological salt solution.

[3] = Local application of RTX without local anesthetic, compared with capsaicin or with combination with local anesthetic; type: in vivo
Description: Moreover, it is free of inflammation and pain. In particular, this preparation may be used without using ethanol, which otherwise is always necessary for the known intravesical administration. It is a further surprising advantage of the use without local or general anesthesia that, due to the injection, a warm, pleasant sensation sets in, which decisively supports combating pain. In this way, an amelioration of pain is achieved, which surpasses that of a combination with local anesthetics. This may also be explained by the antagonistic effect, which the local anesthetics have for vanilloid receptor agonists since they partially block the desired neurotoxic effect of vanilloids.

[4] = test system: knee joint; experiment: Injection of resiniferatoxin solution into the intracapsular space of a patient's knee joint; type: in vivo, human
Description: (§1) Under the optionally simultaneous (image converter, CT, sonography, MRI, etc.) or subsequent (x-ray, CT, MRI, sonography, arthroscopy, etc.) imaging control, the therapist brought an injection needle into the joint space of a knee joint and injected 9 mL of a 500 nmolar solution (approximately 0.003 mg) of resiniferatoxin into the intracapsular space. The patient noted a clear alleviation of their symptoms already 14 hours after the intervention. This alleviation lasted for more than 6 months.
Under the optionally simultaneous (image converter, CT, sonography, MRI, arthroscopy, etc.) or subsequent (x-ray, CT, MRI, sonography, etc.) imaging control, the therapist brought an injection needle into the joint space of a knee joint and injected […] of a 500 nmolar solution (approximately 0.006 mg) of resiniferatoxin into the intracapsular space. The patient noted a clear alleviation of their symptoms already a few days after the intervention. This alleviation lasted for more than 6 months.
The injected solution corresponded to that of Example 1 with the difference that, for the imaging method to be used, 5 mL of a visible contrasting agent (Iopamidol) was added at a concentration of 50 g/100 mL. After the injection, this contrasting agent spread out within the joint capsule and documented the position of the injection needle and the distribution of the RTX within the joint capsule. The injected solution, containing RTX, was drawn off again directly after the injection. It could, however, also be drawn off after a defined, substance-dependent time of action or not be drawn off at all. The patient noted a clear alleviation of their symptoms already 15 hours after the intervention. This alleviation lasted for more than 8 months.
as §1, with “nM (approx.” for “nmolar solution (approximately”, “mg) solution” for “mg)”, “resiniferatoxin, buffered with a buffer to a pH of 8.5, together physiological salt solution” for “resiniferatoxin”, “a few minutes” for “14 hours”
Under the optionally simultaneous (image converter, CT, sonography, MRI, etc.) or subsequent (x-ray, CT, MRI, sonography, arthroscopy, etc.) imaging control, the therapist, brought an injection needle into the joint space of a knee joint and injected 9 mL of a 500 nmolar solution (approximately 0.003 mg) of resiniferatoxin, buffered to a pH of 6.5 with a buffer, together with a physiological salt solution into the intracapsular space.
Under the optionally simultaneous (image converter, CT, sonography, MRI, etc.) or subsequent (x-ray, CT, MRI, sonography, arthroscopy, etc.) imaging control, the therapist, brought an injection needle into the joint space of a knee joint and injected 9 mL of a 500 nmolar solution (approximately 0.003 mg) of resiniferatoxin, in a physiological Ringer solution with 10 mmolar Ca2+ into the intracapsular space.

[5] = test system: postoperative pain; experiment: Injection of resiniferatoxin after knee or hip joint prosthesis implantation (postoperative pain); type: in vivo, human
Description: After a knee joint prosthesis had been implanted, the therapist injected 50 mL of a solution of 100 nmolar (approximately 0.001 mg) solution of resiniferatoxin into the joint capsule, which had been closed off once again.
After a hip joint prosthesis had been implanted, the therapist injected 50 mL of a solution of 100 nmolar (approximately 0.001 mg) solution of resiniferatoxin into the periprosthetic region without a capsule.

[6] = test system: affected joint; experiment: Continuous infusion of resiniferatoxin solution into the affected joint via infusion catheter; type: in vivo, human; details: Example 4: 100 nmolar
Description: The therapist placed a thin infusion catheter, similar to an epidural catheter, into the affected joint and, with a perfuser, injected a solution of […] of 100 nmolar of resiniferatoxin into the affected joint at a rate of 1-10 mL/h for 12 hours. Optionally, they also placed a drainage catheter with an optionally defined drainage resistance (such as 20 mm Hg), in order to achieve a liquid turnover. With this method, the therapist achieved a uniform infiltration of the painful joint, without large concentration peaks. Moreover, it was possible to define the period of action better.
The patient noted a clear alleviation of their symptoms already 12 hours after the intervention. This alleviation lasted for more than 1 year.

[7] = test system: chronically inflamed bursa (Bursa trochenterica); experiment: Injection into chronically inflamed bursa (Bursa trochenterica); type: in vivo, human
Description: The therapist injected 5 mL of a solution of a 500 nmolar (approximately 0.001 mg) solution of resiniferatoxin, buffered to a pH of 8.5 with a buffer, together with physiological salt solution as solvent, into a chronically inflamed bursa (Bursa trochenterica) over the greater trochanter of the hip. Within 60 minutes, the symptoms of the patient disappeared and the patient remained asymptomatic at this place for several years.
The therapist injected 50 mL of a 100 nmolar (approximately 0.001 mg) solution of resiniferatoxin in glycerin or Ringer lactate as solvent. Within 60 minutes, the symptoms of the patient disappeared and the patient remained asymptomatic at this place for several years.

[8] = Example 7: 5 μmolar solution into (neo)-capsule about the prosthesis
[9] = Example 11: 9 mL of 100 nmolar solution in physiological salt solution, shoulder joint
[10] = Example 12: 3 mL of 500 nmolar solution in physiological salt solution, shoulder joint
[11] = Example 1: 9 mL of 500 nmolar solution, knee joint, intracapsular
[12] = Example 2: 20 mL of 500 nmolar solution, knee joint, intracapsular
[13] = Example 3: solution of Example 1 plus 5 mL Iopamidol 50 g/100 mL, drawn off directly after injection
[14] = Example 8: 9 mL of 500 nM solution buffered to pH 8.5, physiological salt solution, knee joint
[15] = Example 9: 9 mL of 500 nmolar solution buffered to pH 6.5, physiological salt solution, knee joint
[16] = Example 10: 9 mL of 500 nmolar solution in Ringer solution with 10 mmolar Ca2+, knee joint
[17] = 1-10 mL/h for 12 hours via catheter
[18] = Example 13: 5 mL of 500 nmolar solution buffered to pH 8.5, physiological salt solution, bursa over greater trochanter
[19] = Example 14: 50 mL of 100 nmolar solution in glycerin or Ringer lactate

## C=C(C)[C@]12C[C@@H](C)[C@@]34O[C@](Cc5ccccc5)(O[C@@H]1[C@@H]3C=C(COC(=O)Cc1ccc(O)c(OC)c1)C[C@]1(O)C(=O)C(C)=C[C@@H]41)O2 [resiniferatoxin]
[1]; Example 7: 5 μmolar solution
  bone substance about the prosthesis (radiological): the bone substance had consolidated about the prosthesis
[1]; [8]
  duration of alleviation of pain: more than one year
  time to alleviation of pain: 6 to 12 h
[1]; Example 7: 5 μmolar solution, diffusion of RTX along the shaft and about the socket
  infection about the prosthesis: brought very much under control
[2]; [9]
  pain after injection: alleviated permanently
  time to alleviation of pain after the injection: A few minutes
[2]; Example 11: 9 mL of 100 nmolar solution
  joint mobility lost due to capsulitis: able to regain the mobility
[2]; [10]
  pain after injection: abated permanently
  time to abatement of pain after the injection: A few minutes
[2]; Example 12: 3 mL of 500 nmolar solution
  joint mobility lost due to capsulitis: regained the mobility lost due to capsulitis
[3]; applied locally, without a local anesthetic
  local tolerability (burning, inflammation of tissue): no burning and also no inflammation of tissue
[3]; local intraarticular injection at a very low concentration
  effectiveness of RTX by itself versus injection together with a local anesthetic: more effective than an injection together with a local anesthetic
[4]; [11]
  duration of alleviation: more than 6 months
  time to clear alleviation of symptoms after the intervention: 14 h
[4]; [12]
  duration of alleviation: more than 6 months
  time to clear alleviation of symptoms after the intervention: a few days
[4]; [13]
  duration of alleviation: more than 8 months
  time to clear alleviation of symptoms after the intervention: 15 h
[4]; [14]
  duration of alleviation: more than 6 months
  time to clear alleviation of symptoms after the intervention: a few minutes
[4]; [15]
  duration of alleviation: more than 6 months
  time to clear alleviation of symptoms after the intervention: Within minutes
[4]; [16]
  duration of alleviation: more than 6 months
  time to clear alleviation of symptoms after the intervention: Within minutes
[5]; Example 5: 50 mL of 100 nmolar solution into closed joint capsule after knee joint prosthesis
  postoperative pain: possible to minimize postoperative pain
[5]; Example 6: 50 mL of 100 nmolar solution into periprosthetic region without capsule after hip joint prosthesis
  postoperative pain: possible to minimize postoperative pain
[6]; [17]
  duration of alleviation: more than 1 year
  time to clear alleviation of symptoms after the intervention: 12 h
[6]; 1-10 mL/h for 12 hours, arthroscopies after 1, 2, 7, 14 and 28 days
  inflamed tissue at subsequent arthroscopies: only a very little inflamed tissue was present
[7]; [18]
  duration patient remained asymptomatic: several years
  time to disappearance of symptoms: ≤ 60 min
[7]; [19]
  duration patient remained asymptomatic: several years
  time to disappearance of symptoms: ≤ 60 min
